In US8389442B2, “N-phenyl-′(4-pyridyl)-azinyl!amine derivatives as plant protection agents” (Syngenta Crop Protection LLC, priority 2003, dated 2013) one finds melting point data, which are given here for one compound.

Molecules are shown by their SMILES.

As to `COCC(C)Nc1cc(-c2ccnc(Nc3cccc(Cl)c3)c2)ccn1` (stereo not shown) [Compound A1.10, N*2′*-(3-Chloro-phenyl)-N*2*-(2-methoxy-1-methyl-ethyl)-[4,4′]bipyridinyl-2,2′-diamine], the melting point (usually the temperature, or range, at which the solid turns liquid) came out at 110 °C.
